Patent publication US20150094354A1, “METHOD FOR TREATING CELL PROLIFERATIVE DISORDER BY INHIBITING C1GALT1 EXPRESSION” (National Taiwan University, priority 2013, published 2015)

Legend:
Type in all cases: cell-based, human
[1] = system: HA22T cells; assay: Cell-cycle analysis by propidium iodide flow cytometry; conditions: HA22T (not shown)
Description: (§1) Cells (4×10^4) are seeded in each well of 6-well plates with DMEM containing 10% FBS. Viable cells are analyzed by Trypan blue exclusion assay at 0, 24, 48, and 72 hours. Cell proliferation is evaluated by immunostaining with anti-Ki67 antibody (1:1000; Vector Laboratories). For cell-cycle analysis, 1×10^6 cells are stained with propidium iodide (Sigma) for 30 minutes. The percentages of cells in G1, S, and G2M phases are analyzed by flow cytometry (Becton Dickinson).
(§2) FIGS. 10A-10B are schematic diagrams illustrating the effects of C1GALT1 on cell proliferation of hepatocellular carcinoma cells in vitro in accordance with an embodiment of the present invention. Cells were immunofluorescently stained for Ki67 and Ki67-positive cells were counted under a microscope. Results are presented as means±SD from three independent experiments. *, P<0.05; **, P<0.01.

[2] = system: PLC5 cells; assay: as above; conditions: PLC5 (not shown)
Description: as §1, §2

[3] = system: HGF/MET signaling pathway; assay: HGF-induced signaling by Western blotting
Description: Human liver cancer cell lines, Huh7, PLC5, Sk-Hep1, and HepG2, are purchased from Bioresource Collection and Research Center in the year 2008. HA22T, SNU387, and HCC36 cells are kindly provided by Prof. Shiou-Hwei Yeh (National Taiwan University) in the year 2010. All cell lines are authenticated by the provider based on morphology, antigen expression, growth, DNA profile, and cytogenetics. Cells are cultured in Dulbecco's Modified Eagle Medium (DMEM) containing 10% FBS in 5% CO2 at 37° C. To analyze growth factor-induced cell signaling, cells are starved in serum-free DMEM for 5 hours and then treated with 25 ng/mL of hepatocyte growth factor (HGF) or insulin-like growth factor (IGF) at 37° C. for 30 minutes.
Equal amounts of protein samples are mixed with 5× sample buffer and boiled for 5 minutes, separated on SDS-polyacrylamide gels, and then transferred to PVDF membrane. The membranes are blocked in 5% BSA for 1 hour at room temperature, and incubated with primary antibodies overnight at 4° C. Anti-phosphotyrosine (4G10) antibody (Millipore, Billerica, Mass.), antibodies against C1GALT1, GAPDH, IGF-IR, MET pY 1234/5, IGF-IR pY1135/1136, p-AKT, p-ERK1/2, and ERK1/2 antibody (BD Pharmingen, San Jose, Calif.) are used. The blots are then incubated with secondary antibody conjugated with horseradish peroxidase and immunoreacted bands are detected by ECL reagents and exposed on x-ray film.
FIGS. 13A-13B are autoradiograms illustrating the effects of C1GALT1 on the HGF-induced signaling and IGF-induced signaling in hepatocellular carcinoma cells in accordance with an embodiment of the present invention. The role of C1GALT1 in glycosylation and activation of MET in hepatocellular carcinoma cells was investigated. HA22T, PLC5, Sk-Hep1, and HCC36 cells were starved for 5 hours and then treated with (+)/without (−) HGF (25 ng/mL) or IGF (25 ng/mL) for 30 minutes. Cell lysates ([…]) were analyzed by Western blotting with various antibodies, as indicated. […] In contrast, overexpression of C1GALT1 enhanced HGF-induced activation of MET and increased p-AKT levels in Sk-Hep1 and HCC36 cells, as shown in FIG. 13B.

[4] = system: PLC5 cells; assay: Trypan blue exclusion cell viability assay; conditions: PLC5, up to 72 hours
Description: as §1
FIGS. 9A-9B are schematic diagrams illustrating the effects of C1GALT1 on the cell viability of hepatocellular carcinoma cells in vitro in accordance with an embodiment of the present invention. Cell viability of HA22T, PLC5, Sk-Hep1, and HCC36 cells was analyzed by Trypan blue exclusion assays at different time points for 72 hours. The results were standardized by the cell number at 0 hour. Data are represented as means±SD from three independent experiments. *, P<0.05; **, P<0.01.

[5] = system: MET; assay: VVA lectin pull-down of MET
Description: Vicia villosa agglutinin (VVA)- and peanut agglutinin (PNA) lectin-conjugated agarose beads, fluorescein isothiocyanate (FITC)-, and biotinylated VVA were purchased from Vector Laboratories. Recombinant EGF, HGF, IGF-I, and protein deglycosylation kits were purchased from Sigma. Protein deglycosylation is carried out using an Enzymatic Protein Deglycosylation Kit (Sigma). Briefly, cell lysates are treated with neuraminidase or PNGase F at 37° C. for 1 hour. For lectin blotting, […] of cell lysate is separated by an 8% SDS-PAGE, transferred to polyvinylidene difluoride membrane (Millipore), and blotted with biotinylated VVA (1:10,000). For lectin pull-down assay, cell lysates (0.3 mg) are incubated with or without deglycosylation enzymes and then applied to VVA- or PNA-conjugated agarose beads at 4° C. for 16 hours. The pulled down proteins are analyzed by Western blotting.
To investigate whether C1GALT1 can modify O-glycans on MET, VVA binding to MET was analyzed in hepatocellular carcinoma cells with C1GALT1 knockdown or overexpression. […] Cell lysates were treated with (+) or without (−) neuraminidase and then pulled down by VVA agarose beads. The pulled down glycoproteins were immunoblotted (IB) with anti-MET antibody. These findings indicate that C1GALT1 can modify O-glycans on MET in hepatocellular carcinoma cells. […]

Substance | cell cycle [1] | cell cycle [2] | HGF-induced phosphorylation of MET at Y1234/5 ([3]; HA22T, HGF 25 ng/mL 30 minutes) | phosphorylation of AKT ([3]; HA22T, HGF 25 ng/mL 30 minutes) | HGF-induced phosphorylation of MET at Y1234/5 ([3]; PLC5, HGF 25 ng/mL 30 minutes) | phosphorylation of AKT ([3]; PLC5, HGF 25 ng/mL 30 minutes) | cell viability [4] | VVA binding to MET ([5]; HA22T cells) | VVA binding to MET ([5]; PLC5 cells)
C1GALT1 si-1: siRNA oligonucleotide against C1GALT1, presumably SEQ ID NO: 1, UUAGUAUACGUUCAGGUAAGGUAGG (chemistry not given here) | G1-phase arrest | G1-phase arrest | inhibited | suppressed | inhibited | suppressed | significantly suppressed | increased | increased
C1GALT1 si-2: siRNA oligonucleotide against C1GALT1, presumably SEQ ID NO: 2, UUAUGUUGGCUAGAAUCUGCAUUGA (chemistry not given here) | G1-phase arrest | G1-phase arrest | inhibited | suppressed | inhibited | suppressed | significantly suppressed | – | –
